# Data published in ChEMBL document CHEMBL5678803, “Selective blockade of TRPA1 channel attenuates pathological pain without altering noxious cold sensation or body temperature regulation” (Pain, 2011).
# Activity calls are given as the source filed them. The rule behind the calls is not given here.
# Legend:
# [1] = Stability of compound in aqueous tetrahydrofuran buffer at pH 7.5 assessed as compound remaining incubated for 16 hrs in presence of glutathione by nuclear magnetic resonance spectroscopy based LC-MS analysis; assay type: physicochemical; conditions: aqueous tetrahydrofuran buffer with glutathione, read-out: Stability
# [2] = Chemical reactivity of compound to La antigen incubated overnight by LC-MS analysis; assay type: physicochemical
# [3] = molecular target: Transient receptor potential cation channel subfamily A member 1 (Rattus norvegicus, UniProt Q6RI86); assay: Antagonist activity at rat TRPA1 expressed in HEK293F cells assessed as reduction in AITC-induced increase in intracellular Ca2+ level by FLIPR-based Ca2+ assay; assay type: cell-based
# [4] = molecular target: Transient receptor potential cation channel subfamily A member 1 (Mus musculus, UniProt Q8BLA8); assay: Antagonist activity at mouse TRPA1 expressed in HEK293F cells assessed as reduction in AITC-induced increase in intracellular Ca2+ level by FLIPR-based Ca2+ assay; assay type: cell-based
# [5] = molecular target: T1, Transient receptor potential cation channel subfamily V member 4 (Homo sapiens, UniProt Q9HBA0); assay: Activation of human TRPV4 expressed in HEK293F cells upto 100 micromol/L; assay type: cell-based; conditions: dose <= 100.0 µmol/L
# [6] = molecular target: Transient receptor potential cation channel subfamily M member 8 (Homo sapiens, UniProt Q7Z2W7); assay: Activation of human TRPM8 expressed in HEK293F cells upto 100 micromol/L; assay type: cell-based; conditions: dose <= 100.0 µmol/L
# [7] = molecular target: Transient receptor potential cation channel subfamily V member 1 (Homo sapiens, UniProt Q8NER1); assay: Antagonist activity at human TRPV1 expressed in HEK293F cells assessed as inhibition of capsaicin-induced increase in intracellular Ca2+ level by FLIPR-based Ca2+ assay; assay type: cell-based
# [8] = molecular target: T2, Transient receptor potential cation channel subfamily V member 3 (Homo sapiens, UniProt Q8NET8); assay: Antagonist activity at endogenous TRPV3 in human epithelial cells assessed as inhibition of 2APB-induced increase in intracellular Ca2+ level by FLIPR-based Ca2+ assay; assay type: cell-based, Epithelial cell
# T2 sequence (Q8NET8 whole entry): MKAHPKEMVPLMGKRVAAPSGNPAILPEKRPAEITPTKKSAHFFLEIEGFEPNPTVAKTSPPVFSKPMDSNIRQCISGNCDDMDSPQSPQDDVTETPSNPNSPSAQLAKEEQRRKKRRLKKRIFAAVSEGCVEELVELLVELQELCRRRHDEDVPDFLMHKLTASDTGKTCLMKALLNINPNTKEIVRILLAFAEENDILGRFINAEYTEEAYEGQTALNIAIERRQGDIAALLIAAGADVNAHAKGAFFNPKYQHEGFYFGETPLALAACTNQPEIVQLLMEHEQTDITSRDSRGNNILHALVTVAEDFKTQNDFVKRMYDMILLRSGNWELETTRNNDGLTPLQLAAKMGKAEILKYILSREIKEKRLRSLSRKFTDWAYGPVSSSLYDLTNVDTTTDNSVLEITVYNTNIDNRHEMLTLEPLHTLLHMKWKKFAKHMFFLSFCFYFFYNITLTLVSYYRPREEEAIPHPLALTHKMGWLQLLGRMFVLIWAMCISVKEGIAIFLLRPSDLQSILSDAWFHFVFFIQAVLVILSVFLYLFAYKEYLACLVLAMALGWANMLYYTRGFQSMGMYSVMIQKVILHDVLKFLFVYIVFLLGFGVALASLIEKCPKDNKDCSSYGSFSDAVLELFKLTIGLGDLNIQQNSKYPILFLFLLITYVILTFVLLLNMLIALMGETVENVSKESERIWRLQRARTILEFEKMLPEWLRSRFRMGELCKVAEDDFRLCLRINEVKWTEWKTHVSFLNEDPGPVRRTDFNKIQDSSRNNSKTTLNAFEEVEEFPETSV
# [9] = molecular target: T1, Transient receptor potential cation channel subfamily V member 4; assay: Antagonist activity at human TRPV4 expressed in HEK293F cells assessed as inhibition of mOsmo-induced increase in intracellular Ca2+ level by FLIPR-based Ca2+ assay; assay type: cell-based
# [10] = molecular target: T1, Transient receptor potential cation channel subfamily V member 4; assay: Antagonist activity at human TRPV4 expressed in HEK293F cells assessed as inhibition of mOsmo-induced TRPV4 channel activation by FLIPR-based Ca2+ assay relative to control; assay type: cell-based; conditions: concentration not given here
# [11] = molecular target: Sodium-dependent dopamine transporter (Homo sapiens) (UniProt Q01959); assay: Inhibition of dopamine transporter (unknown origin) at 10 micromol/L by radioligand binding assay; conditions: dose 10.0 µmol/L
# [12] = Oral bioavailability in rat at 2 mg/kg; assay type: ADME, organism-based; conditions: in vivo
# [13] = Half-life in rat at 2 mg/kg, po; assay type: ADME, organism-based; conditions: in vivo
# [14] = Ratio of drug concentration in rat brain to plasma at 2 mg/kg, po; assay type: ADME, organism-based; conditions: read-out: BPR
# [15] = Unbound drug concentration in rat at 62.1 mg/kg, po measured after 60 mins; assay type: ADME, organism-based; conditions: in vivo, 1 h
# Rattus norvegicus [16] = assay: Analgesic activity in AITC-induced nocifensive response Sprague-Dawley rat model assessed as prevention of mustard oil-induced flinching behavior administered orally for 1 hrs; assay type: functional, organism-based; conditions: dose 6.2-62.1 mg/kg, route po
# [17] = Effect on locomotory activity in Sprague-Dawley rat model of mustard oil-induced nocifensive response at 6.2 to 62.1 mg/kg, po administered for 1 hrs; assay type: toxicity, organism-based; conditions: in vivo, dose 6.2-62.1 mg/kg
# [18] = Toxicity in Sprague-Dawley rat assessed as effect on body temperature at 20.7 to 62.1 mg/kg, po measured after 480 mins by radiotelemetric analysis; assay type: organism-based; conditions: in vivo, 8 h, dose 20.7-62.1 mg/kg
# [19] = Toxicity in CD1 mouse assessed as effect on first jump latency at 0 degreeC at 62.1 mg/kg, po measured after 4 mins by noxious cold plate assay; assay type: organism-based; conditions: in vivo
# [20] = Toxicity in CD1 mouse assessed as effect on total forepaw shivering response at 5 degreeC at 62.1 mg/kg, po measured after 4 mins by noxious cold plate assay; assay type: organism-based; conditions: in vivo
# Rattus norvegicus [21] = assay: Antiallodynic activity in acetone-induced CCI Sprague-Dawley rat model assessed as attenuation of acetone induced cold allodynia at 62.1 mg/kg, po measured after 1 hrs relative to control; assay type: functional
# T1 sequence (Q9HBA0 whole entry): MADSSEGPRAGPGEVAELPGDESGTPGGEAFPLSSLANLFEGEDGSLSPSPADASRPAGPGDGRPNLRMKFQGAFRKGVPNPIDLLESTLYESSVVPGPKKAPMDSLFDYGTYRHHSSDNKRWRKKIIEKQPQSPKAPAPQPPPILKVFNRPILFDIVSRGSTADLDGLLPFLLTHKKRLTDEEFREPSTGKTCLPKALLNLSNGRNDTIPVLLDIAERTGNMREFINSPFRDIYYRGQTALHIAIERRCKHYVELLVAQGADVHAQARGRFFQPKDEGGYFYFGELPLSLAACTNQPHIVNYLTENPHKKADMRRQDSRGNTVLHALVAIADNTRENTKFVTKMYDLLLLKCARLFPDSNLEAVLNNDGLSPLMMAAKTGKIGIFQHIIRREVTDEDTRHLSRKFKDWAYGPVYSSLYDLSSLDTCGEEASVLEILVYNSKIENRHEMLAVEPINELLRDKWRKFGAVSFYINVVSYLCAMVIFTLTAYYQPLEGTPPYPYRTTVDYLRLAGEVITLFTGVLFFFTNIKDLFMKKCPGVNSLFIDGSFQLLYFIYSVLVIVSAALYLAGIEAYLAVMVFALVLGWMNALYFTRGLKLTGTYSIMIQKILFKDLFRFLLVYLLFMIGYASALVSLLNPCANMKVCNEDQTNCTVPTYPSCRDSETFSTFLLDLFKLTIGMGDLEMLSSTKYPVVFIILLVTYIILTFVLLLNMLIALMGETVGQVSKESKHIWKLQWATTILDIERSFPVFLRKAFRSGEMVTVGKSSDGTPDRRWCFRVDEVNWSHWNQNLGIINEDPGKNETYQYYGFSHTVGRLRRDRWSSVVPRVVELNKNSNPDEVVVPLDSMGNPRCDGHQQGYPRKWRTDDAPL
# Transient receptor potential cation channel subfamily A member 1 (Mus musculus, UniProt Q8BLA8), sequence (Q8BLA8 whole entry): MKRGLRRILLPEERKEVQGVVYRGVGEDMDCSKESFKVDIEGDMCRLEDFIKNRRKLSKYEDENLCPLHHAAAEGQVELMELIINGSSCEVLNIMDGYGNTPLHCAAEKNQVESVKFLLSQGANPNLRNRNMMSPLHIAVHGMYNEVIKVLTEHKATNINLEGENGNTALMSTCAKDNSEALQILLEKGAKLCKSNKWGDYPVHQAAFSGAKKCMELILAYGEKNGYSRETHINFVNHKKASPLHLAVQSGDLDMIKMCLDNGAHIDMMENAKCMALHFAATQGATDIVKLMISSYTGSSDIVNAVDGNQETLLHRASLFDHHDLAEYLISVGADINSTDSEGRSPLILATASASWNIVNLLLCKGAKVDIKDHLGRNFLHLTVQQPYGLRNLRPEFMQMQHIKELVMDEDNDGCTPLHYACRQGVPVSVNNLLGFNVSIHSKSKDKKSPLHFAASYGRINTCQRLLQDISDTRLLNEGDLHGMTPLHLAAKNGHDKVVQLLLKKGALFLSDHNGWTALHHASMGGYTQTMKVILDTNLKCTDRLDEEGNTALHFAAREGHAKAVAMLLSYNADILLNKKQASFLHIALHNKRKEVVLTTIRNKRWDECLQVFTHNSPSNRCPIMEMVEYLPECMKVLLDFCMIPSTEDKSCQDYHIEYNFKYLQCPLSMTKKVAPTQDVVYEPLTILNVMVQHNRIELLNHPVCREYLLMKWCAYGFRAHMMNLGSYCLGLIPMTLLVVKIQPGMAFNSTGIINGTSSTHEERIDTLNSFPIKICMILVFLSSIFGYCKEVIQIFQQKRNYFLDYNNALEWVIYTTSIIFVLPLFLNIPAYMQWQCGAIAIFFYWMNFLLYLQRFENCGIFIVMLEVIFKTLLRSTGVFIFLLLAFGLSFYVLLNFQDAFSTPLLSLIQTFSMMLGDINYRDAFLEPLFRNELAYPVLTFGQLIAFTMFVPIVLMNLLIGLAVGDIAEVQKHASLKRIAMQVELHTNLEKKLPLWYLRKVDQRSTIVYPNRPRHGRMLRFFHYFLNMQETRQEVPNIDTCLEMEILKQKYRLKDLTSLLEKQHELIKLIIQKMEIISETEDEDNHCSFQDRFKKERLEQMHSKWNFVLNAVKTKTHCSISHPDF
# Transient receptor potential cation channel subfamily V member 1, sequence (Q8NER1 whole entry): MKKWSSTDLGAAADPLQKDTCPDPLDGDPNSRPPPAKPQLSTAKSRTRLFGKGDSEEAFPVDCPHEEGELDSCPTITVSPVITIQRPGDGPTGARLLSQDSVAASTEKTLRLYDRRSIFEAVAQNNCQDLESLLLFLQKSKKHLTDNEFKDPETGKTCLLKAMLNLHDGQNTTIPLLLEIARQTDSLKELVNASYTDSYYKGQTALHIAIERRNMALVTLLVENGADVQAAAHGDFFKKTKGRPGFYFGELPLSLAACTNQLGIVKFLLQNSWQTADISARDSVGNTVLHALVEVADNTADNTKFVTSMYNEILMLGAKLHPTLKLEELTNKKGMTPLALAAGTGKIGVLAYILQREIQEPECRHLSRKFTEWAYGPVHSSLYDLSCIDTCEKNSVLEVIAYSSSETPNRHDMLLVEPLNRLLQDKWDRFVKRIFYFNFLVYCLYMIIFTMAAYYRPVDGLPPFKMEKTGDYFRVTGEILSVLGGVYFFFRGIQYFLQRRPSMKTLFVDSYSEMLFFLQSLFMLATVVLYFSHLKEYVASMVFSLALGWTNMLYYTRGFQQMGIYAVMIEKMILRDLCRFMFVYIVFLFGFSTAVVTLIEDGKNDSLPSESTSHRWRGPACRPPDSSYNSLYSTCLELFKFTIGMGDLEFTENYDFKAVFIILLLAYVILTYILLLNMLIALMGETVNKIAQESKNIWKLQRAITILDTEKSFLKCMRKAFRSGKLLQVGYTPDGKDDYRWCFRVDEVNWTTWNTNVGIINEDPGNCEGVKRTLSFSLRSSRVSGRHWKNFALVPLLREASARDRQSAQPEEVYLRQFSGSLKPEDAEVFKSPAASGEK
# Transient receptor potential cation channel subfamily M member 8, sequence (Q7Z2W7 whole entry, looked up): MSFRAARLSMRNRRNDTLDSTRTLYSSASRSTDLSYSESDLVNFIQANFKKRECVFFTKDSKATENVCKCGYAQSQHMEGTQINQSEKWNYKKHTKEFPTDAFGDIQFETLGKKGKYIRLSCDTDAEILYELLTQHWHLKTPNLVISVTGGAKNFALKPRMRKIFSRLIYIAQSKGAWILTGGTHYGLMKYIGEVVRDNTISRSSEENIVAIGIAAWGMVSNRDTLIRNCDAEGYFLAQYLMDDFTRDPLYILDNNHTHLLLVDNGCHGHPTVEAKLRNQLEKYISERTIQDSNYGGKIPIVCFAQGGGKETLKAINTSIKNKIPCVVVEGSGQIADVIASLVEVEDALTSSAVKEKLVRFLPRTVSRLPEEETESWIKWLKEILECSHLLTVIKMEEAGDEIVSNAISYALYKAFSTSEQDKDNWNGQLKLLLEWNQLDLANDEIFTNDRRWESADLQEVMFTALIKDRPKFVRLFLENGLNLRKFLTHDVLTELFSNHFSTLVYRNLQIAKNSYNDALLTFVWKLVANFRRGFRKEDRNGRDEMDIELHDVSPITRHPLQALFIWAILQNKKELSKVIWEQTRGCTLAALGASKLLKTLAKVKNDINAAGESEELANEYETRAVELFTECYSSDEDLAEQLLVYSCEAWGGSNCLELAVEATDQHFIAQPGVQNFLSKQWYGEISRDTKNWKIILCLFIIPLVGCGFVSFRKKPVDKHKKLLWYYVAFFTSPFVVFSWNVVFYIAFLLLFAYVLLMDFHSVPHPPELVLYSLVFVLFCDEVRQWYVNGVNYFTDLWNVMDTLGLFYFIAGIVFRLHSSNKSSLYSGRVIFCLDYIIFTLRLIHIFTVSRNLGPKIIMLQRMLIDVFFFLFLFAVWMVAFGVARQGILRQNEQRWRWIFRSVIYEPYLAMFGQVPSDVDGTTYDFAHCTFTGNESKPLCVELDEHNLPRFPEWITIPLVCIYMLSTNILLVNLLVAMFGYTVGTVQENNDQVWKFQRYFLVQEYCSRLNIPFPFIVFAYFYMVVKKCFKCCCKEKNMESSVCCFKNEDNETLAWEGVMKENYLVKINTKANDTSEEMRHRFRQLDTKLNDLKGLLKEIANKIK
# Transient receptor potential cation channel subfamily A member 1 (Rattus norvegicus, UniProt Q6RI86), sequence (Q6RI86 whole entry): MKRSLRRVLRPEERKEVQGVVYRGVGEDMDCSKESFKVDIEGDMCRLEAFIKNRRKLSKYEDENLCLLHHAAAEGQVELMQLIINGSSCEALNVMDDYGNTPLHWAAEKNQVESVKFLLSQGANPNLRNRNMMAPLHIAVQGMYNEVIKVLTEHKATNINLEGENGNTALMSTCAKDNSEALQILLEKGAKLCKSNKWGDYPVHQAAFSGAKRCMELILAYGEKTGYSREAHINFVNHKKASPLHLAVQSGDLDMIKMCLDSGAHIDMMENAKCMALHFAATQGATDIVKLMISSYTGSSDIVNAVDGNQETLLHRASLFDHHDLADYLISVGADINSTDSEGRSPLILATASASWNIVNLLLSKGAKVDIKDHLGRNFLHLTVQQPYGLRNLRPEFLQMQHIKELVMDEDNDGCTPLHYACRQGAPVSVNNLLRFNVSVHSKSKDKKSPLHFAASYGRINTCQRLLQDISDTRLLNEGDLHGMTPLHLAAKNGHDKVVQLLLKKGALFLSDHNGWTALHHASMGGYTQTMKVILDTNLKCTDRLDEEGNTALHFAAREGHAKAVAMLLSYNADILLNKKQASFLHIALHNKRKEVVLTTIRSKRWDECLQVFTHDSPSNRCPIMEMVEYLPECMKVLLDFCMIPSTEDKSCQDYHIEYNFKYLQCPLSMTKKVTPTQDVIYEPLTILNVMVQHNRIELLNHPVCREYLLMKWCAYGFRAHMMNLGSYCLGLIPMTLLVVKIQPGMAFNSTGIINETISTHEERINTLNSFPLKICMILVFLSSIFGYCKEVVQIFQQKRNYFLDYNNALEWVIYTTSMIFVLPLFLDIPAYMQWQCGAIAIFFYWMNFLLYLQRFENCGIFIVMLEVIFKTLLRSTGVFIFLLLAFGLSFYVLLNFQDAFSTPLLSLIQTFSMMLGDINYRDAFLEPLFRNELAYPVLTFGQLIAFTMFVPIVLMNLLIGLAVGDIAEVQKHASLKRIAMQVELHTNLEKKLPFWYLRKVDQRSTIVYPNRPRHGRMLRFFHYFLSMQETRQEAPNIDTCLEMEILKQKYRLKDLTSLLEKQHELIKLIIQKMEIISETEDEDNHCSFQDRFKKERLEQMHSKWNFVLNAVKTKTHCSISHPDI
smiles,measurement,setting,value
CCC(=N\O)/C(C)=C/c1ccc(F)cc1 [A-079],remaining at 16 h,[1],> 95%
same,Stability,[2],Stable
same,IC50,[3],289 nM
same,IC50,[4],296 nM
same,Activity,[5],inactive
same,Activity,[6],inactive
same,IC50,[7],> 100000 nM
same,IC50,[8],> 100000 nM
same,IC50,[9],> 100000 nM
same,inhibition,[10],< 20%
same,inhibition,[11],43%
same,bioavailability,[12],37%
same,half-life,[13],48.6 min
same,Kp,[14],0.75
same,Drug uptake(free),[15],0.47 µmol/L
same,Activity,Rattus norvegicus [16],Dose-Dependent Effect
same,Activity,[17],Non-Toxic
same,Activity,[18],Non-Toxic
same,Activity,[19],Non-Toxic
same,Activity,[20],Non-Toxic
same,Activity,Rattus norvegicus [21],46.4%
